According to ChEMBL document CHEMBL1201862, “PubChem BioAssay data set” (2004):
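96-well plates; 48 h exposure; 5 concentrations. Endpoints by linear interpolation between flanking doses. Not reached: highest tested concentration assigned. GI50: concentration for 50% inhibition of growth.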 Activity calls are given as the source filed them. No stated cut-off is given here; in the data, active = GI50 up to about 1.1 µM and inactive = higher.

Key:
Assay in all cases: DTP human tumour cell line panel, 48 h
[1] = tested on: A498
[2] = tested on: DLD-1
[3] = tested on: HCT-15
[4] = tested on: HL-60
[5] = tested on: HOP-62
[6] = tested on: KM12
[7] = tested on: M14
[8] = tested on: NCI-H226
[9] = tested on: NCI-H460
[10] = tested on: OVCAR-8
[11] = tested on: RPMI-8226
[12] = tested on: RXF 393
[13] = tested on: SF-268
[14] = tested on: SK-MEL-5
[15] = tested on: SNB-75
[16] = tested on: SR
[17] = tested on: UO-31
[18] = tested on: MDA-MB-435
[19] = tested on: NCI/ADR-RES
[20] = tested on: T47D

| Structure (SMILES) | GI50 [1] | GI50 [2] | GI50 [3] [µM] | GI50 [4] | GI50 [5] | GI50 [6] | GI50 [7] | GI50 [8] | GI50 [9] | GI50 [10] | GI50 [11] | GI50 [12] | GI50 [13] | GI50 [14] | GI50 [15] | GI50 [16] | GI50 [17] | GI50 [18] | GI50 [19] | GI50 [20] |
| --- | --- | --- | --- | --- | --- | --- | --- | --- | --- | --- | --- | --- | --- | --- | --- | --- | --- | --- | --- | --- |
| CCOC(=O)c1c(NNc2ccccc2)nc2ccccc2c1-c1ccccc1 | > 100 µM (inactive) | 25.9 µM (inactive) | 33 | 15.8 µM (inactive) | 23.8 µM (inactive) | 31.4 µM (inactive) | 27.3 µM (inactive) | 28.2 µM (inactive) | 28.4 µM (inactive) | 20.4 µM (inactive) | 11.9 µM (inactive) | 42 µM (inactive) | 31.1 µM (inactive) | 20.4 µM (inactive) | 36.8 µM (inactive) | 21.4 µM (inactive) | 25.8 µM (inactive) |  |  |  |
| COC(=O)C(=O)Cc1nc2ccccc2s1 | > 100 µM (inactive) | > 100 µM (inactive) | > 100 | > 100 µM (inactive) | > 100 µM (inactive) |  | > 100 µM (inactive) | > 100 µM (inactive) |  | > 100 µM (inactive) |  | > 100 µM (inactive) | > 100 µM (inactive) | > 100 µM (inactive) | > 100 µM (inactive) | > 100 µM (inactive) | > 100 µM (inactive) |  |  |  |
| CCCCCCCCCCCCCCCCSS(C)(=O)=O | 52.4 µM (inactive) | 11.6 µM (inactive) | 11 | 4.07 µM (inactive) | > 100 µM (inactive) | > 100 µM (inactive) | 9.42 µM (inactive) | > 27.6 µM (inactive) | > 61.2 µM (inactive) | 29.4 µM (inactive) | 5 µM (inactive) | 5.43 µM (inactive) | 10.7 µM (inactive) | 32.8 µM (inactive) | 14.6 µM (inactive) | 4.65 µM (inactive) | 20.8 µM (inactive) | > 100 µM (inactive) | 2.33 µM (inactive) | 8.97 µM (inactive) |
| Cn1c(O)c(C(=O)NC2CCCCC2)c(=O)n(C)c1=S | 4.44 µM (inactive) | 4.93 µM (inactive) | 5.02 |  | 4.85 µM (inactive) | 9.66 µM (inactive) | 8.02 µM (inactive) | 8.57 µM (inactive) | 6.1 µM (inactive) | 4.33 µM (inactive) | 4.32 µM (inactive) |  | 4.56 µM (inactive) | 5.05 µM (inactive) |  | 17.9 µM (inactive) | 3.24 µM (inactive) |  |  |  |
| CCNc1nnc(CSc2nc(-c3ccccc3)c(-c3ccccc3)[nH]2)s1 |  | 22.7 µM (inactive) | 18.3 | 15.5 µM (inactive) | 19.9 µM (inactive) | 9.38 µM (inactive) | 17.5 µM (inactive) | 13.4 µM (inactive) | 24.9 µM (inactive) | 14 µM (inactive) | 15.5 µM (inactive) |  | 15.7 µM (inactive) | 11.8 µM (inactive) | 23 µM (inactive) | 31 µM (inactive) | 14 µM (inactive) |  |  |  |
| CCCCCCCCC/C=C/C=C/C(=O)NCC(=O)NC1C(O)C(O)C(Nc2ncnc3[nH]cnc23)OC1C(O)CO (stereo unspecified) | 0.00468 µM (active) | 0.0655 µM (active) | 0.362 | 0.00159 µM (active) | 0.00412 µM (active) | 0.00263 µM (active) | 0.0046 µM (active) | 0.00133 µM (active) | 0.00189 µM (active) | 0.00413 µM (active) | 0.0018 µM (active) | 0.00401 µM (active) | 0.0143 µM (active) | 0.0137 µM (active) | 0.00125 µM (active) | 0.0211 µM (active) | 0.00196 µM (active) | 0.0255 µM (active) | < 0.01 µM (active) | 0.169 µM (active) |
| CCc1cccc(CC)c1NC(=O)C1=CNC(C)=C(C(=O)Nc2c(CC)cccc2CC)C1c1ccc(O)c(OC)c1 (stereo unspecified) | 24.7 µM (inactive) | 47 µM (inactive) |  | 26.5 µM (inactive) | 33.3 µM (inactive) | 24.6 µM (inactive) | 34.5 µM (inactive) | 30.1 µM (inactive) | 31.6 µM (inactive) | 33.7 µM (inactive) | 16.8 µM (inactive) | 25.3 µM (inactive) | 40.6 µM (inactive) | 32.3 µM (inactive) | 44.7 µM (inactive) |  | 29.1 µM (inactive) |  |  |  |
| O=C1CC(c2c(-c3ccccc3)[nH]c3ccccc23)C(=O)N1 (stereo unspecified) | 90.2 µM (inactive) | > 100 µM (inactive) | > 100 | > 100 µM (inactive) | > 100 µM (inactive) | > 100 µM (inactive) | > 100 µM (inactive) | > 100 µM (inactive) | > 100 µM (inactive) | > 100 µM (inactive) | > 100 µM (inactive) | > 100 µM (inactive) |  | > 100 µM (inactive) | 35.4 µM (inactive) |  | 76.6 µM (inactive) |  |  |  |
| O=C1C=CC(S(=O)(=O)C2=C/C(=C/Nc3ccc(Cl)cc3)C(=O)C=C2)=C/C1=C/Nc1ccc(Cl)cc1 | > 100 µM (inactive) | > 100 µM (inactive) |  | > 100 µM (inactive) | > 100 µM (inactive) | > 100 µM (inactive) | > 100 µM (inactive) | > 100 µM (inactive) | > 100 µM (inactive) | > 100 µM (inactive) | > 100 µM (inactive) | > 100 µM (inactive) | > 100 µM (inactive) | > 100 µM (inactive) | 47.6 µM (inactive) | > 100 µM (inactive) | > 100 µM (inactive) |  |  |  |
